For the test, the system named is P1534 leukemia ip, CD2F1 mice, survival T/C. Put plainly: NCI In Vivo Anticancer Drug Screen. Data for tumor model P1534 Leukemia (intraperitoneal) in CD2F1 (CDF1) mice. The settings on record: endpoint: mean survival time, vehicle: saline, higher = longer survival. The protocol:
The antitumor activity of compounds was measured in mice bearing transplantable tumors. Survival or tumor size were measured and the results are expressed as the measurement made in the treated group (T) divided by the measurement made in the vehicle treated control group (C). The tumor model used in this assay is P1534 Leukemia (intraperitoneal) in CD2F1 (CDF1) mice

The mark [1] stands for this setting: dose: 0.06 mg/kg/injection, schedule: Q01DX010 (ip).
[2] abbreviates: dose: 50.0 mg/kg/injection, schedule: Q01DX010 (ip).
The mark [3] stands for this setting: dose: 100.0 mg/kg/injection, schedule: Q01DX010 (ip).
The mark [4] stands for this setting: dose: 200.0 mg/kg/injection, schedule: Q01DX010 (ip).
Setting [5] is: dose: 400.0 mg/kg/injection, schedule: Q01DX010 (ip).
Where [6] appears, read: dose: 1.25 mg/kg/injection, schedule: Q01DX010 (ip).
Setting [7] is: dose: 2.5 mg/kg/injection, schedule: Q01DX010 (ip).
The mark [8] stands for this setting: dose: 10.0 mg/kg/injection, schedule: Q01DX010 (ip).

Where “and” joins values, the source holds several entries; their conditions need not be identical. Equal values may be shown once. Toxic doses and inconclusive results are not listed.

For `COc1cc2c(c(OC)c1OC)-c1ccc(OC)c(=O)cc1[C@@H](NC(C)=O)CC2`, the T/C by setting is: (dose: 0.04 mg/kg/injection, schedule: Q01DX010 (ip)) 100 % of control; (dose: 0.05 mg/kg/injection, schedule: Q01DX010 (ip)) 123 % of control; under setting [1], 100 % of control; (dose: 0.12 mg/kg/injection, schedule: Q01DX010 (ip)) 188 % of control; (dose: 0.18 mg/kg/injection, schedule: Q01DX010 (ip)) 213 % of control; (dose: 0.2 mg/kg/injection, schedule: Q01DX015 (ip)) 161 % of control. Also, the T/C is 174 % of control (dose: 0.2 mg/kg/injection, schedule: Q02DX008 (ip)); 253 % of control (dose: 0.27 mg/kg/injection, schedule: Q01DX010 (ip)); 212 % of control (dose: 0.3 mg/kg/injection, schedule: Q01DX015 (ip)); 159 % of control (dose: 0.3 mg/kg/injection, schedule: Q02DX008 (ip)); 257 % of control (dose: 0.45 mg/kg/injection, schedule: Q01DX015 (ip)); 261 % of control (dose: 0.45 mg/kg/injection, schedule: Q02DX008 (ip)). Besides, the T/C is, setting by setting: (dose: 0.67 mg/kg/injection, schedule: Q02DX008 (ip)) 318 % of control; (dose: 0.9 mg/kg/injection, schedule: Q## X004 (ip)) 348 % of control; (dose: 1.0 mg/kg/injection, schedule: Q02DX008 (ip)) 304 % of control; (dose: 1.0 mg/kg/injection, schedule: Q## X032 (ip)) 242 % of control; (dose: 1.1 mg/kg/injection, schedule: Q01DX001 (ip)) 255 % of control; (dose: 1.3 mg/kg/injection, schedule: Q## X004 (ip)) 328 % of control. The T/C was 352 % of control (dose: 1.6 mg/kg/injection, schedule: Q## X032 (ip)); 208 % of control (dose: 1.7 mg/kg/injection, schedule: Q01DX001 (ip)); 240 % of control (dose: 2.4 mg/kg/injection, schedule: Q## X032 (ip)); 241 % of control (dose: 2.5 mg/kg/injection, schedule: Q01DX001 (ip)).
Consider `CN(CC(=O)NCCCCCCCCCCNC(=O)CN(C)C(=O)OCc1ccccc1)C(=O)OCc1ccccc1`, for which the T/C reads like this: under setting [2], 96 % of control; under setting [3], 96 % of control; under setting [4], 96 % of control; under setting [5], 96 % of control.
Turning to `Nc1nc(=S)c2[nH]cnc2[nH]1`, the T/C under setting [6] was 161 % of control and 181 % of control; the T/C under setting [7] was 150 % of control; the T/C (dose: 5.0 mg/kg/injection, schedule: Q01DX010 (ip)) is 122 % of control; the T/C under setting [8] was 105 % of control.
For the compound `COc1ccc(Cc2nccc3cc(OC)c(OC)cc23)cc1OC`, the T/C runs as follows: under setting [8], 100 % of control; (dose: 20.0 mg/kg/injection, schedule: Q01DX010 (ip)) 100 % of control; (dose: 40.0 mg/kg/injection, schedule: Q01DX010 (ip)) 100 % of control; (dose: 80.0 mg/kg/injection, schedule: Q01DX010 (ip)) 100 % of control.
Regarding `Cc1cc(N(CCCl)CCCl)ccc1C=Nc1ccccc1-c1ccccc1`, the T/C was 100 % of control (dose: 25.0 mg/kg/injection, schedule: Q01DX010 (ip)); 100 % of control under setting [2]; 100 % of control under setting [3].
With `COC(=O)C1=COC(C)C2CN3CCc4c([nH]c5cc(OC)c(OC)cc45)C3CC12` (configuration not stated), the T/C runs as follows: under setting [2], 96 % of control; under setting [3], 100 % of control; under setting [4], 100 % of control.
As for `N[C@@H](Cc1ccc(N(CCCl)CCCl)cc1)C(=O)O`, the T/C is 164 % of control under setting [6] and 189 % of control under setting [7].
As for `CC(=O)OCC1OC(n2ncc(=O)[nH]c2=O)C(OC(C)=O)C1OC(C)=O` (configuration not stated), the T/C (dose: 300.0 mg/kg/injection, schedule: Q01DX010 (ip)) is 89 % of control; the T/C (dose: 450.0 mg/kg/injection, schedule: Q01DX010 (ip)) is 96 % of control; the T/C (dose: 675.0 mg/kg/injection, schedule: Q01DX010 (ip)) was 100 % of control.
For `CC[C@]12CN3CCc4c([nH]c5ccccc45)[C@@](C(=O)OC)(c4cc5c(cc4OC)N(C)[C@H]4[C@@](O)(C(=O)OC)[C@H](OC(C)=O)[C@]6(CC)C=CCN7CC[C@]54[C@@H]76)CC(C3)[C@H]1O2` (some centres not stated), the T/C was 182 % of control (dose: 1.5 mg/kg/injection, schedule: Q01DX010 (ip)); 260 % of control (dose: 3.0 mg/kg/injection, schedule: Q01DX010 (ip)); 96 % of control (dose: 94.0 micrograms/kg/injection, schedule: Q01DX010 (ip)); 103 % of control (dose: 188.0 micrograms/kg/injection, schedule: Q01DX010 (ip)); 123 % of control (dose: 375.0 micrograms/kg/injection, schedule: Q01DX010 (ip)).
Turning to `COc1ccc2c(=O)cc(-c3ccccc3)n(C)c2c1`, the T/C was 103 % of control under setting [2], 103 % of control under setting [3], 103 % of control under setting [4] and 96 % of control under setting [5].
On to `COC1=C(N)C(=O)c2nc(-c3nc(C(=O)O)c(C)c(-c4ccc(OC)c(OC)c4O)c3N)ccc2C1=O`, for which the T/C is 117 % of control under setting [1]; 110 % of control (dose: 0.09 mg/kg/injection, schedule: Q01DX010 (ip)); 103 % of control (dose: 0.13 mg/kg/injection, schedule: Q01DX010 (ip)).

The values are drawn from PubChem BioAssay AID316 (DTP/NCI, 2004).
